Source: the NIST ThermoML archive (doi:10.1021/acs.jced.8b00554)

Assay: xn = mol fraction of the nth substance listed
Settings: Liquid, Vibrating tube method

CCCCCCCCC [nonane] + CCCO
mass density [kg/m3]
Settings | 353.15 K | 363.15 K
100 kPa, x2 = 0.1231 | – | 655.98
100 kPa, x2 = 0.2315 | – | 657.04
100 kPa, x2 = 0.3229 | – | 658.57
100 kPa, x2 = 0.4272 | – | 662.45
100 kPa, x2 = 0.7021 | – | 683
100 kPa, x2 = 0.8941 | – | 710.52
1000 kPa, x2 = 0.1231 | – | 657.23
1000 kPa, x2 = 0.8941 | – | 710.94
1010 kPa, x2 = 0.2315 | – | 659.34
1010 kPa, x2 = 0.4272 | – | 664.09
1010 kPa, x2 = 0.7021 | – | 683.53
1020 kPa, x2 = 0.3229 | – | 660.57
2010 kPa, x2 = 0.1231 | – | 658.47
2010 kPa, x2 = 0.2315 | – | 660.57
2010 kPa, x2 = 0.3229 | – | 661.82
2010 kPa, x2 = 0.4272 | – | 665.32
2010 kPa, x2 = 0.7021 | – | 684.79
2010 kPa, x2 = 0.8941 | – | 712.1
3010 kPa, x2 = 0.2315 | – | 661.79
3010 kPa, x2 = 0.3229 | – | 663.05
3010 kPa, x2 = 0.7021 | – | 686.04
3010 kPa, x2 = 0.8941 | – | 713.33
3020 kPa, x2 = 0.1231 | – | 659.67
3020 kPa, x2 = 0.4272 | – | 666.57
4010 kPa, x2 = 0.1231 | – | 660.89
4010 kPa, x2 = 0.3229 | – | 664.28
4010 kPa, x2 = 0.4272 | – | 667.83
4010 kPa, x2 = 0.7021 | – | 687.34
4010 kPa, x2 = 0.8941 | – | 714.55
4020 kPa, x2 = 0.2315 | – | 663.04
5000 kPa, x2 = 0.4272 | – | 669.09
5000 kPa, x2 = 0.7021 | – | 688.61
5010 kPa, x2 = 0.1231 | – | 662.09
5010 kPa, x2 = 0.2315 | – | 664.23
5010 kPa, x2 = 0.3229 | – | 665.52
5010 kPa, x2 = 0.8941 | – | 715.78
6000 kPa, x2 = 0.7021 | – | 689.86
6010 kPa, x2 = 0.2315 | – | 665.41
6010 kPa, x2 = 0.4272 | – | 670.36
6010 kPa, x2 = 0.8941 | – | 717.03
6020 kPa, x2 = 0.1231 | – | 663.3
6020 kPa, x2 = 0.3229 | – | 666.76
7000 kPa, x2 = 0.3229 | – | 667.99
7000 kPa, x2 = 0.7021 | – | 691.15
7010 kPa, x2 = 0.1231 | – | 664.48
7010 kPa, x2 = 0.2315 | – | 666.62
7020 kPa, x2 = 0.4272 | – | 671.62
7020 kPa, x2 = 0.8941 | – | 718.27
8000 kPa, x2 = 0.3229 | – | 669.23
8000 kPa, x2 = 0.7021 | – | 692.44
8010 kPa, x2 = 0.8941 | – | 719.48
8020 kPa, x2 = 0.1231 | – | 665.72
8020 kPa, x2 = 0.2315 | – | 667.87
8020 kPa, x2 = 0.4272 | – | 672.88
9000 kPa, x2 = 0.2315 | – | 669.09
9000 kPa, x2 = 0.3229 | – | 670.48
9010 kPa, x2 = 0.7021 | – | 693.71
9010 kPa, x2 = 0.8941 | – | 720.71
9020 kPa, x2 = 0.1231 | – | 666.89
9020 kPa, x2 = 0.4272 | – | 674.14
10010 kPa, x2 = 0.1231 | – | 668.07
10010 kPa, x2 = 0.2315 | – | 670.27
10010 kPa, x2 = 0.3229 | – | 671.75
10010 kPa, x2 = 0.4272 | – | 675.41
10010 kPa, x2 = 0.7021 | – | 694.96
10010 kPa, x2 = 0.8941 | – | 721.93
11000 kPa, x2 = 0.1231 | 679.16 | –
11000 kPa, x2 = 0.4272 | 688.79 | –
11010 kPa, x2 = 0.1231 | – | 669.29
11010 kPa, x2 = 0.2315 | 682.07 | 671.48
11010 kPa, x2 = 0.3229 | – | 672.98
11010 kPa, x2 = 0.4272 | – | 676.62
11010 kPa, x2 = 0.7021 | 709.06 | –
11010 kPa, x2 = 0.8941 | 735.52 | 723.15
11020 kPa, x2 = 0.3229 | 684.47 | –
11020 kPa, x2 = 0.7021 | – | 696.2
12000 kPa, x2 = 0.3229 | 685.59 | 674.18
12000 kPa, x2 = 0.7021 | 710.18 | 697.42
12010 kPa, x2 = 0.1231 | 680.24 | 670.44
12010 kPa, x2 = 0.2315 | 683.2 | 672.7
12010 kPa, x2 = 0.4272 | 689.92 | 677.87
12010 kPa, x2 = 0.8941 | 736.6 | 724.32
13000 kPa, x2 = 0.4272 | – | 679.08
13000 kPa, x2 = 0.8941 | – | 725.44
13010 kPa, x2 = 0.1231 | 681.32 | 671.61
13010 kPa, x2 = 0.3229 | – | 675.41
13010 kPa, x2 = 0.4272 | 691.03 | –
13010 kPa, x2 = 0.7021 | 711.31 | 698.65
13010 kPa, x2 = 0.8941 | 737.63 | –
13020 kPa, x2 = 0.2315 | 684.28 | 673.89
13020 kPa, x2 = 0.3229 | 686.69 | –
14000 kPa, x2 = 0.3229 | 687.76 | 676.57
14000 kPa, x2 = 0.4272 | 692.13 | –
14000 kPa, x2 = 0.8941 | 738.72 | –
14010 kPa, x2 = 0.1231 | 682.37 | –
14010 kPa, x2 = 0.2315 | 685.35 | –
14010 kPa, x2 = 0.4272 | – | 680.27
14010 kPa, x2 = 0.7021 | – | 699.83
14010 kPa, x2 = 0.8941 | – | 726.63
14020 kPa, x2 = 0.1231 | – | 672.74
14020 kPa, x2 = 0.2315 | – | 675.04
14020 kPa, x2 = 0.7021 | 712.38 | –
15000 kPa, x2 = 0.2315 | – | 676.17
15000 kPa, x2 = 0.4272 | 693.19 | –
15010 kPa, x2 = 0.1231 | 683.4 | 673.85
15010 kPa, x2 = 0.3229 | 688.83 | 677.73
15010 kPa, x2 = 0.4272 | – | 681.42
15010 kPa, x2 = 0.7021 | 713.45 | –
15010 kPa, x2 = 0.8941 | – | 727.76
15020 kPa, x2 = 0.2315 | 686.39 | –
15020 kPa, x2 = 0.7021 | – | 700.99
15020 kPa, x2 = 0.8941 | 739.75 | –
16000 kPa, x2 = 0.2315 | 687.43 | 677.27
16000 kPa, x2 = 0.8941 | 740.76 | –
16010 kPa, x2 = 0.1231 | 684.41 | 674.91
16010 kPa, x2 = 0.3229 | – | 678.86
16010 kPa, x2 = 0.4272 | 694.24 | 682.56
16010 kPa, x2 = 0.7021 | 714.52 | –
16020 kPa, x2 = 0.3229 | 689.88 | –
16020 kPa, x2 = 0.7021 | – | 702.15
16020 kPa, x2 = 0.8941 | – | 728.86
17000 kPa, x2 = 0.1231 | – | 676
17000 kPa, x2 = 0.8941 | 741.78 | 729.95
17010 kPa, x2 = 0.1231 | 685.42 | –
17010 kPa, x2 = 0.2315 | – | 678.41
17010 kPa, x2 = 0.3229 | 690.92 | –
17010 kPa, x2 = 0.4272 | 695.25 | 683.64
17010 kPa, x2 = 0.7021 | 715.56 | –
17020 kPa, x2 = 0.2315 | 688.48 | –
17020 kPa, x2 = 0.3229 | – | 679.98
17020 kPa, x2 = 0.7021 | – | 703.28
18000 kPa, x2 = 0.3229 | 691.91 | –
18000 kPa, x2 = 0.7021 | 716.55 | –
18010 kPa, x2 = 0.1231 | 686.41 | 677.05
18010 kPa, x2 = 0.2315 | 689.45 | 679.45
18010 kPa, x2 = 0.4272 | – | 684.75
18010 kPa, x2 = 0.7021 | – | 704.37
18010 kPa, x2 = 0.8941 | 742.76 | –
18020 kPa, x2 = 0.3229 | – | 681.03
18020 kPa, x2 = 0.4272 | 696.27 | –
18020 kPa, x2 = 0.8941 | – | 731.02
19000 kPa, x2 = 0.2315 | – | 680.43
19000 kPa, x2 = 0.3229 | 692.9 | –
19000 kPa, x2 = 0.4272 | 697.25 | –
19000 kPa, x2 = 0.7021 | – | 705.41
19010 kPa, x2 = 0.1231 | 687.34 | 678.04
19010 kPa, x2 = 0.2315 | 690.38 | –
19010 kPa, x2 = 0.3229 | – | 682.1
19010 kPa, x2 = 0.4272 | – | 685.8
19010 kPa, x2 = 0.8941 | 743.72 | 732.06
19020 kPa, x2 = 0.7021 | 717.54 | –
20000 kPa, x2 = 0.1231 | 688.24 | –
20000 kPa, x2 = 0.2315 | 691.33 | –
20000 kPa, x2 = 0.3229 | 693.81 | –
20010 kPa, x2 = 0.1231 | – | 679
20010 kPa, x2 = 0.2315 | – | 681.42
20010 kPa, x2 = 0.3229 | – | 683.05
20010 kPa, x2 = 0.4272 | 698.23 | 686.85
20010 kPa, x2 = 0.7021 | 718.51 | –
20020 kPa, x2 = 0.7021 | – | 706.48
20020 kPa, x2 = 0.8941 | 744.66 | 733.04
